What was measured:
[1] = tested on: Caspase 8; assay: Caspase 8 cleavage/activation (CC8), immunoblot; assay type: cell-based; conditions: 24 h
Source text: The BT20, BT474, BT549, MCF7, MDA-MB-231, MDA-MB-436, MDA-MB-468, HCC1143, HCC1500, HCC1569, HCC1937, HCC1954, Hs578t, and T47D cells lines were purchased from American Type Culture Collection (ATCC) (Manassas, VA). The HCI-001 cell line was derived from an ER-/PR-/HER2- patient-derived xenograft originally isolated from a patient as described previously (DeRose Y S, et al. Nat Med 2011; 17: 1514-1520). The HCI-001/LVM2 model was derived from the HCI-001 cell line by performing two rounds of selection for liver metastasis, as described previously (Wang M, et al. Cell Death Discovery 2019; 5: 153). Cell lines were grown in Dulbecco's Modified Eagle's Medium (GE Healthcare Life Sciences, Logan, UT) containing 10% fetal bovine serum (10% FBS—DMEM) in a humidified incubator with 5% CO2 at 37° C. Cell lysates were prepared as described previously (Law B K, et al. Mol Cell Biol. 2002; 22: 8184-8198). […]
To assess protein disulfide bond-mediated oligomerization, cells were treated with DDAs for 24 h in 10% FBS-DMEM. […] Samples were subsequently analyzed by SDS-PAGE and immunoblot.

[2] = tested on: ERAP1; assay: ERAP1 secretion in A431 skin cancer cells, immunoblot; assay type: cell-based; conditions: 5 μM, 24 h
[3] = tested on: DR5; assay: Doxycycline-inducible DR5 (wild type and Cys mutants) expression, non-reducing immunoblot; assay type: cell-based; conditions: MDA-MB-468 stable cell lines, 24 h, FIG. 7E
Description: (§1) To assess protein disulfide bond-mediated oligomerization, cells were treated with DDAs for 24 h in 10% FBS-DMEM. Cells were subsequently scraped directly into the media and pelleted by centrifugation. Cells were extracted directly into boiling 2×-SDS-Sample Buffer containing 100 mM NEM and boiled for 10 min. Samples were sonicated, followed by centrifugation for 20 min at room temperature. Samples were subsequently analyzed by SDS-PAGE and immunoblot.

[4] = tested on: ERAP1; assay: ERAP1 retention/secretion in MDA-MB-468 cells, immunoblot; assay type: cell-based; conditions: MDA-MB-468 cells
Source text: The BT20, BT474, BT549, MCF7, MDA-MB-231, MDA-MB-436, MDA-MB-468, HCC1143, HCC1500, HCC1569, HCC1937, HCC1954, Hs578t, and T47D cells lines were purchased from American Type Culture Collection (ATCC) (Manassas, VA). The HCI-001 cell line was derived from an ER-/PR-/HER2- patient-derived xenograft originally isolated from a patient as described previously (DeRose Y S, et al. Nat Med 2011; 17: 1514-1520). The HCI-001/LVM2 model was derived from the HCI-001 cell line by performing two rounds of selection for liver metastasis, as described previously (Wang M, et al. Cell Death Discovery 2019; 5: 153). Cell lines were grown in Dulbecco's Modified Eagle's Medium (GE Healthcare Life Sciences, Logan, UT) containing 10% fetal bovine serum (10% FBS—DMEM) in a humidified incubator with 5% CO2 at 37° C. Cell lysates were prepared as described previously (Law B K, et al. Mol Cell Biol. 2002; 22: 8184-8198). Immunoblot analysis was performed utilizing the following antibodies purchased from Cell Signaling Technology (Beverly, MA) [Akt, #4691; P-Akt[T308], #13038; ATF4, #11815; CHOP, #2895; Cleaved Caspase 8, #9496; DR4, #42533; DR5, #8074; EGFR, #4267; GRP78, #3177; HER3, #4754; PARP, #9532; PDIA1, #3501; XBP1s, #12782], from Santa Cruz Biotechnology (Santa Cruz, CA) [Actin, sc-47778; AGR2/3, sc-376653; AGR3, sc-390940; ERO1-a, sc-100805; and ERp44, sc-393687], or from Rockland Immunochemicals, Inc. (Limerick, PA), Streptavidin-Alkaline Phosphatase conjugated (SA-AP), S000-05.
as §1

[5] = molecular target: T1, ERp44 (Homo sapiens, UniProt Q9BS26); assay: In vitro binding assay with recombinant purified ERp44; conditions: pre-incubation with a molar excess, FIG. 3D
T1 sequence (Q9BS26 30-406): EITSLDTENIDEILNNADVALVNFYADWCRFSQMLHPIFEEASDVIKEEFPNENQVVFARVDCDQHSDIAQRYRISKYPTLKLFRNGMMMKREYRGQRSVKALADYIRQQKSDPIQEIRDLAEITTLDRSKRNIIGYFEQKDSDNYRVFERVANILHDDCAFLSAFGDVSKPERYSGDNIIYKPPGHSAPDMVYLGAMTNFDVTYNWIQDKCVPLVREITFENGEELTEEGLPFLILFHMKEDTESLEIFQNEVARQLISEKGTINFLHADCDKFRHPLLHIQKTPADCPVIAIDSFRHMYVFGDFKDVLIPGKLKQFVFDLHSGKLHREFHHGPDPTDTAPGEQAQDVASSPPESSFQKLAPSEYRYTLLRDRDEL
Description: (§2) Purified His6-AGR2 or His6-AGR2 C81S, as prepared above, or His6-AGR2 (PRO-580) or His6-AGR3 (PRO-242) obtained from ProSpec (New Brunswick NJ) were incubated with or without varying concentrations of the unlabeled DDA competitors, tcyDTDO or dMtcyDTDO, and 30 μM Biotin-GlyPyrDTDO or Biotin-PyrDTDO in buffer (20 mM HEPES (pH 7.4), 1 mM EDTA, 1 mM EGTA, 5% Glycerol, 1 nM Microcystin, 1 mM Na3VO4, and 40 mM Na2H2P2O7) containing 1% Triton-X 100 for 30 min at 37° C. […] Therefore, the two probes were used interchangeably. Reactions were stopped by boiling the samples in 2×-SDS-Sample Buffer containing 100 mM NEM for 10 min. Biotin-DDA labeling of protein was verified by blotting with Streptavidin-Alkaline Phosphatase (Rockland Immunochemicals, Inc., Limerick, PA). ERp44 (PRO-547) and PDIA1 (ENZ-262) were obtained from ProSpec and used in experiments examining the binding of these proteins to Biotin-PyrDTDO.

[6] = molecular target: PDIA1 (Homo sapiens, UniProt P07237); assay: In vitro binding assay with recombinant purified PDIA1; conditions: pre-incubation with a molar excess, FIG. 3D
PDIA1, sequence (P07237 18-508): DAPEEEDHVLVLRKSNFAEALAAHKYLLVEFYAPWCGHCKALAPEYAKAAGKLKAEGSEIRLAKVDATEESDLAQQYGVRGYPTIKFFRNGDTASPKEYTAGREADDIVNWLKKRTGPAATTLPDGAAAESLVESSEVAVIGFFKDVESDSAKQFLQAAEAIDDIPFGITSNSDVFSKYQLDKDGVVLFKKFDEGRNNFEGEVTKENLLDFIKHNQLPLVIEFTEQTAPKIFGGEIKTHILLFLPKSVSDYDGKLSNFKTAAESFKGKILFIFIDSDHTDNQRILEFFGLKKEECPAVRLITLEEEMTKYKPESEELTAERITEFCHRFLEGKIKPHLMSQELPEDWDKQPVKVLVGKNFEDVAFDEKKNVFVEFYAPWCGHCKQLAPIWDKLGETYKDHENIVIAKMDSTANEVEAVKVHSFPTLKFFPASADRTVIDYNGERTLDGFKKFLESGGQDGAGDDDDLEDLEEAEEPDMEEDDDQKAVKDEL
Description: as §2

With `CO[C@H]1C[C@@H]2CS(=O)(=O)SC[C@H]2C[C@@H]1OC` [dMtcyDTDO, dimethoxy-tcyDTDO] the “Induction of Caspase 8 cleavage/activation (CC8) in ERp44 knockdown versus vector control cells” value ([1]; MDA-MB-468 cells, 2.5 or 5 μM, FIG. 5D) was “increased dMtcyDTDO induction of Caspase 8 cleavage/activation”, the “Caspase 8 cleavage in cells expressing C119S or C160S DR5 mutants” value ([1]; MDA-MB-468 stable cell lines, FIG. 7E) was “modestly increased Caspase 8 cleavage” and the “ERAP1 levels in the culture medium” value ([2]; FIG. 4F upper) was “dramatically increased”. The “ERAP1 secretion, statistical analysis” value ([2]; N=3, FIG. 4F lower) was “induced ERAP1 secretion in a statistically significant manner”, the “Expression of C119S or C160S DR5 mutants” value [3] was “did not further increase expression of the C119S or C160S DR5 mutants” and the “Wild type DR5 expression on co-treatment with doxycycline” value [3] was “further increased DR5 expression”. For the same compound, the “ERAP1 levels in the culture medium” value ([4]; 5 μM, 24 h, FIG. 4F upper) was “dramatically increased”, the “ERAP1 secretion, statistical analysis” value ([4]; 5 μM, 24 h, N=3, FIG. 4F lower) was “induced ERAP1 secretion in a statistically significant manner” and the “Cellular ERAP1 levels, immunoblot” value ([4]; 24 h, FIG. 4B) was “decreased cellular ERAP1 levels”. The “Cellular ERAP1 levels, quantitation across four experiments” value ([4]; FIG. 4C) was “decreased ERAP1 levels and ERp44 binding to client proteins in a statistically significant manner”, the “Block of Biotin-PyrDTDO biotinylation of ERp44” value [5] was “biotinylation was blocked” and the “Block of Biotin-PyrDTDO biotinylation of PDIA1” value [6] was “biotinylation was blocked”.

— patent US20240118281A1, “ANTICANCER COMPOUNDS AND USES THEREOF” (University of Florida Research Foundation, Incorporated, priority 2021, published 2024)
